The compounds below were run against Serine/threonine-protein kinase PLK1 (Homo sapiens, UniProt P53350) (assay: Fluorescent Polarization Binding Assay: The buffer composition was 50 mM Tris, 200 mM NaCl, 2.0 mM DTT, and 0.005% Tween 20 (pH 8.0). Fragment ligated inhibitors and comparison peptides to be tested in the binding assay were dissolved in dimethyl sulfoxide (DMSO) to a concentration of 10 mM, compounds were utilized in a range of concentrations from 10 nM to 600 μM. The PLK1 PBD protein (residues …).
Chain of Serine/threonine-protein kinase PLK1 (P53350 whole entry, the tested form may be a part): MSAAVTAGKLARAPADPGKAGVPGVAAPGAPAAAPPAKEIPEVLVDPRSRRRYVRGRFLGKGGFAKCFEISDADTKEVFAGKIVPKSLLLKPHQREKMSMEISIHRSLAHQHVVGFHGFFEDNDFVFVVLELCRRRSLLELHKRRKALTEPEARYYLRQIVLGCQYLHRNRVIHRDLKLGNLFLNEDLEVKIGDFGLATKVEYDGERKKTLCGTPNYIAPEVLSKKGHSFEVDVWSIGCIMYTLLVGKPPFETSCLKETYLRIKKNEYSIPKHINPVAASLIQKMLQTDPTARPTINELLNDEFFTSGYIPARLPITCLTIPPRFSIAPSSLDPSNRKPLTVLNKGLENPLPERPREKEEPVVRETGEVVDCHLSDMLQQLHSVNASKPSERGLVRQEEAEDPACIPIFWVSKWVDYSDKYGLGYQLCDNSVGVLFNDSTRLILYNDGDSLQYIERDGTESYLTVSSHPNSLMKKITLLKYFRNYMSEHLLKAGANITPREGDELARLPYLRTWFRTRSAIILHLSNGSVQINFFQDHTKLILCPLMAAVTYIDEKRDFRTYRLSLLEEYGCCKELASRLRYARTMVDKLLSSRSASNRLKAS
With `CCc1ccc(C(=O)NC)cc1` the IC50 was 16.5 µM. In the case of `CNC(=O)Cn1cc(-c2ccc(C)cc2)ncc1=O`, the IC50 is reported as 250 µM. For `CNC(=O)CN1C(=O)COc2ccc(C)cc21`, the IC50 was 350 µM. In the case of `CNC(=O)c1cc(-c2ccccc2)c(C(F)(F)F)s1`, the IC50 is reported as 500 µM. `CNC(=O)c1sc(C(F)(F)F)c(-c2ccccc2)c1N` was tested, and the IC50 was greater than 600 µM. Work on `CCCc1ccc(C(=O)NC)cc1` yielded an IC50 of 10.8 µM. Work on `CNC(=O)c1cccc2ccccc12` yielded an IC50 of 104 µM. `CNC(=O)c1ccc(OC)cc1` showed an IC50 of 125 µM. Compound `CCCCc1ccc(C(=O)NC)cc1` has an IC50 of 8.6 µM. `CNC(=O)c1ccc(SC)cc1` gave an IC50 of 18.5 µM. In the case of `CNC(=O)c1ccc(-c2noc(C)n2)cc1`, the IC50 is reported as 320 µM. `CNC(=O)c1cc(-c2ccccc2)n(-c2ccccc2)c1C` showed an IC50 of 600 µM. Compound `CCCOc1ccc(C(=O)NC)cc1` has an IC50 of 29.5 µM. `CCCNc1ccc(C(=O)NC)cc1` was tested, and the IC50 was 16.5 µM. In the case of `CNC(=O)c1ccc(NC)cc1`, the IC50 is reported as 31.2 µM. `CNC(=O)c1cn(S(=O)(=O)c2ccccc2)c2ccccc12` gave an IC50 of 375 µM. Work on `CNC(=O)c1ccc(OC)c2ccccc12` yielded an IC50 of 99 µM. Compound `CCOc1ccc(C(=O)NC)cc1` has an IC50 of 64.7 µM. `CNC(=O)CSc1ncnc2sc(C)cc12` gave an IC50 of 475 µM. `CNC(=O)c1ccc2ncccc2c1` showed an IC50 of 400 µM. `CNC(=O)c1cc(-c2cccc(OC)c2)n[nH]1` gave an IC50 of 380 µM. For `CNC(=O)c1cc(OC)c2c(c1)OCCO2`, the IC50 was 300 µM.
